These results are taken from patent US8778921B2, “Ansamycin hydroquinone compositions” (Infinity Pharmaceuticals, Inc., priority 2008, dated 2014).

Each structure is given as a SMILES string. Counter-ions that a name gives are not always drawn.

A short description of this series: Stability at 40° C. and 75% relative humidity (percent purity by HPLC). The class given is physicochemical. As to conditions: 40° C. and 75% RH; for Percent Purity of 17-AAG T = 0 Days / Percent Purity of 17-AAG T = 21 Days: Table 8; for Percent Purity of 17-BAG T = 0 Days / Percent Purity of 17-BAG T = 21 Days: Table 4; for Percent Purity of 17-FEAG T = 0 Days / Percent Purity of 17-FEAG T = 21 Days: Table 6. The protocol: As used herein, a “stable composition” refers a composition comprising a sulfur-containing compound and a baseline amount of the compound of formula (I) (e.g., such as percent purity as measured by HPLC) such that, after being subjected to standard stability conditions (e.g., 40° C. and 75% relative humidity) for a specified period of time (e.g., 1 day, 2 days, 3 days, 4 days, 5 days, 7 days, 14 days, 21 days, or 30 days), at least about 80% of the original amount of the compound of formula (I) remains in the composition (i.e., has not oxidized to a compound of formula (II) or degraded to other by-products). In certain embodiments, at least about 85%, at least about 90%, at least about 91%, at least about 92%, at least about 93%, at least about 94%, or at least about 95% of the original amount of the hydroquinone compound of formula (I) remains in the composition for a specified period of time (e.g., 1 day, 2 days, 3 days, 4 days, 5 days, 7 days, 14 days, 21 days, or 30 days).
The stability data for 17-AG-HQ of Example 2 when kept at 40° C. and 75% relative humidity (RH) is depicted in FIG. 8 (see Table 2 for tabulated stability data). It was observed that 17-AG-HQ of Example 2 completely oxidizes to its quinone form in two weeks at 40° C. and […] as determined by HPLC.

Setting [1] is: Table 14, formulations of 17-AG-HQ of Example 3.
Setting [2] is: Table 15, NaHSO3/mineral oil formulation of 17-AG-HQ of Example 3.

For the molecule `C=CCNc1c(O)cc2c(O)c1C[C@@H](C)C[C@H](OC)[C@H](O)[C@@H](C)/C=C(\C)[C@H](OC(N)=O)[C@@H](OC)/C=C\C=C(/C)C(=O)N2` [17-AAG-HQ of Example 11A, 17-allylamino-geldanamycin hydroquinone], the “stability over a period of time compared to 17-AAG-HQ of Example 11B” value is “greater stability”. The “Percent Purity of 17-AAG T = 0 Days” value (T = 0 Days) is given as 99%. For the same molecule, for the setting “T = 21 Days”, the “Percent Purity of 17-AAG T = 21 Days” value came out at 97%.

Take `C=CCNc1c(O)cc2c(O)c1C[C@@H](C)C[C@H](OC)[C@H](O)[C@@H](C)/C=C(\C)[C@H](OC(N)=O)[C@@H](OC)/C=C\C=C(/C)C(=O)N2` [17-AAG-HQ of Example 11B, 17-allylamino-geldanamycin hydroquinone]: where the note is “T = 0 Days”, the “Percent Purity of 17-AAG T = 0 Days” value was determined as 97%. In addition, the “Percent Purity of 17-AAG T = 21 Days” value (T = 21 Days) is 2%. In addition, the “Percent Purity of 17-AAG-HQ T = 0 Days” value (Table 19, Example 11B Formulations, T = 0 Days) is listed as 97%. Besides, the “Percent Purity of 17-AAG-HQ T = 21 Days” value (Table 19, Example 11B Formulations, T = 21 Days) worked out at 2%.

As to `CO[C@H]1/C=C\C=C(/C)C(=O)Nc2cc(O)c(N)c(c2O)C[C@@H](C)C[C@H](OC)[C@H](O)[C@@H](C)/C=C(\C)[C@@H]1OC(N)=O` [17-AG-HQ of Example 3, 17-amino-geldanamycin hydroquinone], the “stability over a period of time compared to 17-AG-HQ of Example 2” value is on record as “greater stability”. In addition, where the note is “Table 2, T = 0 Days”, the “Percent Purity of 17-AG-HQ T = 0 Days” value was 97%. Also, where the note is “Table 2, T = 2 Days”, the “Percent Purity of 17-AG-HQ T = 2 Days” value is listed as 93%. In addition, under “Table 2”, the “Percent Purity of 17-AG-HQ T = 5 Days” value is given as 91%, the “Percent Purity of 17-AG-HQ T = 14 Days” value was determined as 87% and the “Percent Purity of 17-AG-HQ T = 30 Days” value was 79%. Also, the “Percent Purity of 17-AG-HQ T = 21 Days” value (Table 2, T = 21 Days) worked out at 81%. In addition, under “Table 14, formulations of 17-AG-HQ of Example 3, T = 0 Days”, the “Percent Purity of 17-AG-HQ T = 0 Days” value is given as 97%. Under setting [1], the “Percent Purity of 17-AG-HQ T = 5 Days” value is 91% and the “Percent Purity of 17-AG-HQ T = 14 Days” value came to 87%. The “Percent Purity of 17-AG-HQ T = 21 Days” value (Table 14, formulations of 17-AG-HQ of Example 3, T = 21 Days) is on record as 81%. Under “Table 15, NaHSO3/mineral oil formulation of 17-AG-HQ of Example 3, T = 0 Days”, the “Percent Purity of 17-AG-HQ T = 0 Days” value is 97%. Further, under setting [2], the “Percent Purity of 17-AG-HQ T = 5 Days” value came to 91% and the “Percent Purity of 17-AG-HQ T = 14 Days” value came to 87%. Moreover, the “Percent Purity of 17-AG-HQ T = 21 Days” value (Table 15, NaHSO3/mineral oil formulation of 17-AG-HQ of Example 3, T = 21 Days) came out at 81%.

On to `CO[C@H]1/C=C\C=C(/C)C(=O)Nc2cc(O)c(N)c(c2O)C[C@@H](C)C[C@H](OC)[C@H](O)[C@@H](C)/C=C(\C)[C@@H]1OC(N)=O` [17-AG-HQ of Example 4, 17-amino-geldanamycin hydroquinone], for which the “stability over a period of time compared to Examples 2 and 3” value is “greater stability”. The “Percent Purity of 17-AG-HQ T = 0 Days” value (Table 2, T = 0 Days) amounted to 99%. Besides, the “Percent Purity of 17-AG-HQ T = 30 Days” value (Table 2) was determined as 97%.

With `CO[C@H]1/C=C\C=C(/C)C(=O)Nc2cc(O)c(N)c(c2O)C[C@@H](C)C[C@H](OC)[C@H](O)[C@@H](C)/C=C(\C)[C@@H]1OC(N)=O` [17-AG-HQ of Example 5, 17-amino-geldanamycin hydroquinone], the “stability over a period of time compared to Examples 2, 3 and 4” value is “greatest stability”. Also, the “Percent Purity of 17-AG-HQ T = 0 Days” value (Table 2, T = 0 Days) is reported as 99%. The “Percent Purity of 17-AG-HQ T = 30 Days” value (Table 2) came out at 98%.

For the molecule `CO[C@H]1/C=C\C=C(/C)C(=O)Nc2cc(O)c(N)c(c2O)C[C@@H](C)C[C@H](OC)[C@H](O)[C@@H](C)/C=C(\C)[C@@H]1OC(N)=O` [17-AG-HQ of Example 6A, 17-amino-geldanamycin hydroquinone], the “stability over a period of time compared to 17-AG-HQ of Example 6B” value is given as “greater stability”. Further, for the setting “Table 2, T = 0 Days”, the “Percent Purity of 17-AG-HQ T = 0 Days” value worked out at 97%. In addition, the “Percent Purity of 17-AG-HQ T = 21 Days” value (Table 2, T = 21 Days) came to 83%.

As for `CO[C@H]1/C=C\C=C(/C)C(=O)Nc2cc(O)c(N)c(c2O)C[C@@H](C)C[C@H](OC)[C@H](O)[C@@H](C)/C=C(\C)[C@@H]1OC(N)=O` [17-AG-HQ of Example 6B, 17-amino-geldanamycin hydroquinone], where the note is “determined by HPLC”, the “time in which the hydroquinone completely oxidizes to its quinone form” value turned out to be 3 weeks. The “Percent Purity of 17-AG-HQ T = 0 Days” value is 97% (Table 2, T = 0 Days) and 97% (Table 16, Example 6B Formulations, T = 0 Days). In addition, the “Percent Purity of 17-AG-HQ T = 21 Days” value is recorded as 13% (Table 2, T = 21 Days) and 13% (Table 16, Example 6B Formulations, T = 21 Days).

Consider `CO[C@H]1/C=C\C=C(/C)C(=O)Nc2cc(O)c(N)c(c2O)C[C@@H](C)C[C@H](OC)[C@H](O)[C@@H](C)/C=C(\C)[C@@H]1OC(N)=O` [17-AG-HQ-HCl salt, 17-amino geldanamycin hydroquinone HCl Salt], for which the “Percent Purity of 17-AG-HQ T = 0 Days” value (Table 2, T = 0 Days) came out at 99%. For the same molecule, where the note is “Table 2”, the “Percent Purity of 17-AG-HQ T = 14 Days” value is 88% and the “Percent Purity of 17-AG-HQ T = 30 Days” value was 74%.

With `CO[C@H]1/C=C\C=C(/C)C(=O)Nc2cc(O)c(NCc3ccccc3)c(c2O)C[C@@H](C)C[C@H](OC)[C@H](O)[C@@H](C)/C=C(\C)[C@@H]1OC(N)=O` [17-BAG-HQ of Example 8A, 17-benzylamino-geldanamycin hydroquinone], the “stability over a period of time compared to 17-BAG-HQ of Example 8B” value is recorded as “greater stability”. Also, the “Percent Purity of 17-BAG T = 0 Days” value (T = 0 Days) is 98%. In addition, the “Percent Purity of 17-BAG T = 21 Days” value (T = 21 Days) was 96%.

`CO[C@H]1/C=C\C=C(/C)C(=O)Nc2cc(O)c(NCc3ccccc3)c(c2O)C[C@@H](C)C[C@H](OC)[C@H](O)[C@@H](C)/C=C(\C)[C@@H]1OC(N)=O` [17-BAG-HQ of Example 8B, 17-benzylamino-geldanamycin hydroquinone]: the “Percent Purity of 17-BAG T = 0 Days” value (T = 0 Days) is recorded as 98%. In addition, the “Percent Purity of 17-BAG T = 21 Days” value (T = 21 Days) worked out at 11%. Further, the “Percent Purity of 17-BAG-HQ T = 0 Days” value (Table 17, Example 8B Formulations, T = 0 Days) amounted to 98%. The “Percent Purity of 17-BAG-HQ T = 21 Days” value (Table 17, Example 8B Formulations, T = 21 Days) amounted to 11%.

For the molecule `CO[C@H]1/C=C\C=C(/C)C(=O)Nc2cc(O)c(NCCF)c(c2O)C[C@@H](C)C[C@H](OC)[C@H](O)[C@@H](C)/C=C(\C)[C@@H]1OC(N)=O` [17-FEAG-HQ of Example 10A, 17-(2-fluoroethylamino)-geldanamycin hydroquinone], the “stability over a period of time compared to 17-FEAG-HQ of Example 10B” value was “greater stability”. Under “T = 0 Days”, the “Percent Purity of 17-FEAG T = 0 Days” value came to 99%. Besides, where the note is “T = 21 Days”, the “Percent Purity of 17-FEAG T = 21 Days” value is on record as 96%.

For the molecule `CO[C@H]1/C=C\C=C(/C)C(=O)Nc2cc(O)c(NCCF)c(c2O)C[C@@H](C)C[C@H](OC)[C@H](O)[C@@H](C)/C=C(\C)[C@@H]1OC(N)=O` [17-FEAG-HQ of Example 10B, 17-(2-fluoroethylamino)-geldanamycin hydroquinone], the “Percent Purity of 17-FEAG T = 0 Days” value (T = 0 Days) is given as 97%. Also, where the note is “T = 21 Days”, the “Percent Purity of 17-FEAG T = 21 Days” value stood at 0%. Besides, the “Percent Purity of 17-FEAG-HQ T = 0 Days” value (Table 18, Example 10B Formulations, T = 0 Days) was 97%. The “Percent Purity of 17-FEAG-HQ T = 21 Days” value (Table 18, Example 10B Formulations, T = 21 Days) amounted to 0%.
